US8901307B2, “Chemical compounds 251” (AstraZeneca AB, priority 2008, dated 2014)
Counter-ions that a name gives are not always drawn.

Experiments:
human His-PIM1 [2-313] = biological target: T1, human His-PIM1 [2-313] (Homo sapiens, UniProt P11309); assay: PIM1 in-vitro mobility shift assay (Caliper LC3000, FL-Ahx-Bad phosphorylation); format: biochemical; conditions: 1.5 h; percent inhibition at 0.3 uM compound; read-out: PIM1 % I at 0.3 uM
T1 construct: purified human His-PIM1 [2-313] enzyme; His (N); purchased University of Dundee, Scotland; host or cells: baculovirus system
T1 sequence (P11309 2-313): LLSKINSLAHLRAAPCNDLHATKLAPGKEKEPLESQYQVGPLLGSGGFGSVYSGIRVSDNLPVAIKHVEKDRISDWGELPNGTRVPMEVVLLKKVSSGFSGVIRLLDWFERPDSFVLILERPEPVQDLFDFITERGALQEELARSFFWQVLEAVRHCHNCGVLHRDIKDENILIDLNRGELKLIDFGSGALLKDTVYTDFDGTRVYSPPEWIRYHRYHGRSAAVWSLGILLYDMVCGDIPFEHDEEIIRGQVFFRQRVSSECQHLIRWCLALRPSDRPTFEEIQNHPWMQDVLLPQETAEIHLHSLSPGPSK
Method in brief: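 Compound preincubated 20 min at 25 °C with 2.4 nM PIM1, 3.6 µM FL-Ahx-Bad peptide and 240 µM ATP (1.2× mix concentrations). Reaction started with 24 mM MgCl2 mix, run 90 min at 25 °C, EDTA-stopped. Phospho/unphospho peptide separated by microfluidic mobility shift; percent inhibition from ratiometric turnover.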

human His-PIM2 [23-299] = biological target: T2, human His-PIM2 [23-299] (Homo sapiens, UniProt Q9P1W9); assay: PIM2 in-vitro mobility shift assay (Caliper LC3000, FL-Ahx-Bad phosphorylation); format: biochemical; conditions: 1.5 h; percent inhibition at 0.3 uM compound; read-out: PIM2 % I at 0.3 uM
T2 construct: purified human His-PIM2 [23-299] enzyme; His (N); host or cells: E. coli
T2 sequence (Q9P1W9 23-299): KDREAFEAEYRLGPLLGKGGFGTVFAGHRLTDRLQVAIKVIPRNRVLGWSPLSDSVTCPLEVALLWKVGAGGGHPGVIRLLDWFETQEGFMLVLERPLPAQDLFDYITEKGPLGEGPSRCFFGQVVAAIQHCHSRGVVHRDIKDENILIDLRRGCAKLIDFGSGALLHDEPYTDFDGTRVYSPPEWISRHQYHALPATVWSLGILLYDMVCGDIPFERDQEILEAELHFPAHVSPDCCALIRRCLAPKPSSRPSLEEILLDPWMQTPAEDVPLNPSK

SMILES | inhibition at 0.3 µM (human His-PIM1 [2-313]) [%] | inhibition at 0.3 µM (human His-PIM2 [23-299]) [%]
CN(C)[C@H]1CCN(c2ccc(Cl)cc2C=C2SC(=O)NC2=O)C1 [Example 84I, (S)-5-(5-chloro-2-(3-(dimethylamino)pyrrolidin-1-yl)benzylidene)thiazolidine-2,4-dione] | > 95 | 82.7
Cc1ccc(C=C2SC(=O)NC2=O)c(N2CC[C@H](N(C)C)C2)c1 [Example 84J, (S)-5-(2-(3-(dimethylamino)pyrrolidin-1-yl)-4-methylbenzylidene)thiazolidine-2,4-dione] | 93.3 | 40.4
CN(C)[C@H]1CCN(c2ccc(F)cc2C=C2SC(=O)NC2=O)C1 [Example 84K, (S)-5-(2-(3-(dimethylamino)pyrrolidin-1-yl)-5-fluorobenzylidene)thiazolidine-2,4-dione] | > 95 | 90.8
Cc1ccc(N2CC[C@H](N(C)C)C2)c(C=C2SC(=O)NC2=O)c1 [Example 84L, (S)-5-(2-(3-(dimethylamino)pyrrolidin-1-yl)-5-methylbenzylidene)thiazolidine-2,4-dione] | > 95 | 55.2
CN(C)[C@H]1CCN(c2ccc(Br)cc2C=C2SC(=O)NC2=O)C1 [Example 84M, (S)-5-(5-bromo-2-(3-(dimethylamino)pyrrolidin-1-yl)benzylidene)thiazolidine-2,4-dione] | > 95 | 80.9
CN(C)[C@H]1CCN(c2c(F)cccc2C=C2SC(=O)NC2=O)C1 [Example 84N, (S)-5-(2-(3-(dimethylamino)pyrrolidin-1-yl)-3-fluorobenzylidene)thiazolidine-2,4-dione] | 92.8 | 81.4
CN(C)[C@H]1CCN(c2cccc(Cl)c2C=C2SC(=O)NC2=O)C1 [Example 84O, (S)-5-(2-chloro-6-(3-(dimethylamino)pyrrolidin-1-yl)benzylidene)thiazolidine-2,4-dione] | < 5 | < 5
N[C@H]1CCN(c2cc(Cl)ccc2/C=C2\SC(=O)NC2=O)C1 [Example 85, (S,Z)-5-(2-(3-aminopyrrolidin-1-yl)-4-chlorobenzylidene)thiazolidine-2,4-dione hydrochloride] | > 95 | 82.4
N[C@H]1CCN(c2c(Cl)cccc2/C=C2\SC(=O)NC2=O)C1 [Example 86, (S,Z)-5-(2-(3-aminopyrrolidin-1-yl)-3-chlorobenzylidene)thiazolidine-2,4-dione hydrochloride] | > 95 | > 95
O=C1NC(=O)/C(=C/c2cc(C(F)(F)F)ccc2N2CCNCC2)S1 [Example 87, (Z)-5-(2-(piperazin-1-yl)-5-(trifluoromethyl)benzylidene)thiazolidine-2,4-dione hydrochloride] | > 95 | 84.2
N[C@H]1CCN(c2ccc(C(F)(F)F)cc2/C=C2\SC(=O)NC2=O)C1 [Example 88, (S,Z)-5-(2-(3-aminopyrrolidin-1-yl)-5-(trifluoromethyl)benzylidene)thiazolidine-2,4-dione hydrochloride] | > 95 | 88.4
O=C1NC(=O)/C(=C/c2cccnc2N2CCNCC2)S1 [Example 89, (Z)-5-((2-(piperazin-1-yl)pyridin-3-yl)methylene)thiazolidine-2,4-dione hydrochloride] | 48.4 | 21.5
NCCC(=O)N1CCN(c2ncccc2/C=C2\SC(=O)NC2=O)CC1 [Example 90, (Z)-5-((2-(4-(3-aminopropanoyl)piperazin-1-yl)pyridin-3-yl)methylene)thiazolidine-2,4-dione trifluoroacetate] | 78.2 | 86.3
O=C1NC(=O)/C(=C/c2ccccc2N2CCN(C(=O)C3CCNCC3)CC2)S1 [Example 91, (Z)-5-(2-(4-(piperidine-4-carbonyl)piperazin-1-yl)benzylidene)thiazolidine-2,4-dione] | 6.6 | 16.4
O=C1NC(=O)/C(=C/c2cc(C(F)(F)F)ccc2N2CCN(C(=O)C3CCCNC3)CC2)S1 (stereo not shown) [Example 92, (Z)-5-(2-(4-(piperidine-3-carbonyl)piperazin-1-yl)-5-(trifluoromethyl)benzylidene)thiazolidine-2,4-dione hydrochloride] | > 95 | 81.5
NCCC(=O)N1CCN(c2ccc(C(F)(F)F)cc2/C=C2\SC(=O)NC2=O)CC1 [Example 93, (Z)-5-(2-(4-(3-aminopropanoyl)piperazin-1-yl)-5-(trifluoromethyl)benzylidene)thiazolidine-2,4-dione hydrochloride] | > 95 | 66.3

SMILES | inhibition at 0.3 µM (human His-PIM1 [2-313]) [%] | inhibition at 0.3 µM (human His-PIM2 [23-299]) [%]
COc1cccc(/C=C2\SC(=O)NC2=O)c1N1CCN(C(=O)CCN)CC1 [Example 94, (Z)-5-(2-(4-(3-aminopropanoyl)piperazin-1-yl)-3-methoxybenzylidene)thiazolidine-2,4-dione hydrochloride] | > 95 | > 95
NCCC(=O)N1CCN(c2c(Cl)cccc2/C=C2\SC(=O)NC2=O)CC1 [Example 95, (Z)-5-(2-(4-(3-aminopropanoyl)piperazin-1-yl)-3-chlorobenzylidene)thiazolidine-2,4-dione hydrochloride] | > 95 | > 95
COc1cccc(/C=C2\SC(=O)NC2=O)c1N1CC[C@H](N)C1 [Example 96, hydrochloride] | > 95 | > 95
COc1cccc(/C=C2\SC(=O)NC2=O)c1N1CCNCC1 [Example 97, (Z)-5-(3-methoxy-2-(piperazin-1-yl)benzylidene)thiazolidine-2,4-dione hydrochloride] | > 95 | 86.4
O=C1NC(=O)/C(=C/c2cccc(Cl)c2N2CCNCC2)S1 [Example 98, (Z)-5-(3-chloro-2-(piperazin-1-yl)benzylidene)thiazolidine-2,4-dione hydrochloride] | > 95 | 81.4
COc1cc(/C=C2\SC(=O)NC2=O)c(N2CCC(CN)C2)cc1OC (stereo not shown) [Example 99, (Z)-5-(2-(3-(aminomethyl)pyrrolidin-1-yl)-4,5-dimethoxybenzylidene)thiazolidine-2,4-dione hydrochloride] | > 95 | > 95
COc1cc(/C=C2\SC(=O)NC2=O)c(N2CC[C@@H](N)C2)cc1OC [Example 100, (R,Z)-5-(2-(3-aminopyrrolidin-1-yl)-4,5-dimethoxybenzylidene)thiazolidine-2,4-dione hydrochloride] | 93 | 93.9
COc1cc(/C=C2\SC(=O)NC2=O)c(N2CC[C@H](N)C2)cc1OC [Example 101, (S,Z)-5-(2-(3-aminopyrrolidin-1-yl)-4,5-dimethoxybenzylidene)thiazolidine-2,4-dione hydrochloride] | > 95 | > 95
O=C1NC(=O)/C(=C/c2ccccc2N2CCCN(C(=O)C3CCCNC3)CC2)S1 (stereo not shown) [Example 102, (Z)-5-(2-(4-(piperidine-3-carbonyl)-1,4-diazepan-1-yl)benzylidene)thiazolidine-2,4-dione hydrochloride] | 93.3 | 91.9
NCCCCC(=O)N1CCCN(c2ccccc2/C=C2\SC(=O)NC2=O)CC1 [Example 103, (Z)-5-(2-(4-(5-aminopentanoyl)-1,4-diazepan-1-yl)benzylidene)thiazolidine-2,4-dione hydrochloride] | > 95 | 88.7
NCCCC(=O)N1CCCN(c2ccccc2/C=C2\SC(=O)NC2=O)CC1 [Example 104, (Z)-5-(2-(4-(4-aminobutanoyl)-1,4-diazepan-1-yl)benzylidene)thiazolidine-2,4-dione hydrochloride] | > 95 | 92.4
NCCC(=O)N1CCCN(c2ccccc2/C=C2\SC(=O)NC2=O)CC1 [Example 105, (Z)-5-(2-(4-(3-aminopropanoyl)-1,4-diazepan-1-yl)benzylidene)thiazolidine-2,4-dione hydrochloride] | > 95 | 92.4
O=C1NC(=O)/C(=C/c2ccccc2N2CCCNCC2)S1 [Example 106, (Z)-5-(2-(1,4-diazepan-1-yl)benzylidene)thiazolidine-2,4-dione hydrochloride] | > 95 | 92.8
NCCCC(=O)N1CCN(c2ccccc2/C=C2\SC(=O)NC2=O)CC1 [Example 107, (Z)-5-(2-(4-(4-aminobutanoyl)piperazin-1-yl)benzylidene)thiazolidine-2,4-dione hydrochloride] | > 95 | > 95
NCCCCC(=O)N1CCN(c2ccccc2/C=C2\SC(=O)NC2=O)CC1 [Example 108, (Z)-5-(2-(4-(5-aminopentanoyl)piperazin-1-yl)benzylidene)thiazolidine-2,4-dione hydrochloride] | > 95 | > 95
O=C1NC(=O)/C(=C/c2ccccc2N2CCN(C(=O)c3ccc(CN4CCNCC4)cc3)CC2)S1 [Example 109, (Z)-5-(2-(4-(4-(piperazin-1-ylmethyl)benzoyl)piperazin-1-yl)benzylidene)thiazolidine-2,4-dione hydrochloride] | 64.2 | 65.8
